PMC7461115, “Contribution of KCNQ and TREK Channels to the Resting Membrane Potential in Sympathetic Neurons at Physiological Temperature” (International Journal of Molecular Sciences, 2020)

What was measured:
[1] = molecular target: T1, TREK-2 (native riluzole-activated current IRIL in mouse SCG neurons) (Mus musculus, UniProt Q8BUW1); assay: perforated-patch whole-cell voltage clamp, inhibition of riluzole-activated current; format: cell-based; details: riluzole 300 µM activator, TEA 15 mM, TTX 0.5 µM, CsCl 1 mM, -30 mV, room temperature, Hill coefficient 0.78
T1 construct: gene Kcnk10; TREK-1 and TRAAK are also expressed at lower level

[2] = molecular target: T2, TREK-2 (expressed in HEK293) (Mus musculus, UniProt Q8BUW1); assay: patch clamp of transfected HEK293 cells, inhibition of riluzole-evoked current
T2 construct: gene Kcnk10
T2 sequence (Q8BUW1 1-535): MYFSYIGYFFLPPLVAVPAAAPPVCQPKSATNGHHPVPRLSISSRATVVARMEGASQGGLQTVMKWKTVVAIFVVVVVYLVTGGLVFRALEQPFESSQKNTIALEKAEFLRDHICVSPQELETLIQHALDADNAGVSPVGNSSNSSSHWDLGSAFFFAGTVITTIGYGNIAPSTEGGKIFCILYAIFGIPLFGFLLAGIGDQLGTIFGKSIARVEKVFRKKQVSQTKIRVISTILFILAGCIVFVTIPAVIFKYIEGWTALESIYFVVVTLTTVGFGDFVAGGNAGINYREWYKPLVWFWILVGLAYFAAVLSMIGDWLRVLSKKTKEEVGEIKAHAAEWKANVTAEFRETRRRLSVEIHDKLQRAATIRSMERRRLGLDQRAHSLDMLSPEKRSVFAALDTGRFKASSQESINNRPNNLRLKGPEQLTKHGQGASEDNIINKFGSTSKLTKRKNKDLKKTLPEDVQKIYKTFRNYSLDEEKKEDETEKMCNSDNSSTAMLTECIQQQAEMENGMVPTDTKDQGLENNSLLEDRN

Compound | IC50 [1] [nM] | inhibition at 0.3 µM ([2]; HEK293, read-out: % inhibition at 300 nM) [%] | inhibition at 1 µM ([2]; HEK293, read-out: % inhibition at 1 μM) [%]
O=C1N(c2ccccc2)c2ccccc2C1(Cc1ccncc1)Cc1ccncc1 [linopirdine] | 310 ± 60 | 65.5 ± 5.93 | –
O=C1c2ccccc2C(Cc2ccncc2)(Cc2ccncc2)c2ccccc21 [XE991] | – | – | 73.8 ± 1.93
